From US10426850B2, “Collagen mimetic peptides for targeting collagen strands for in vitro and in vivo imaging and therapeutic use” (The Johns Hopkins University, priority 2011, dated 2019)

Assay: Circular dichroism spectra and thermal melting of CMPs
Type: physicochemical
Method: Circular dichroism spectroscopy. CD spectra were collected on JASCO 715 spectrophotometer equipped with a JASCO PTC-348 WI temperature controller and quartz cells (0.1 mm path length). CMP solutions (320 μL, 150 μM in 1×PBS) were stored at 4° C. for at least 24 hours before measurement. For photo-decaging, samples were exposed to 365 nm UV light for at least 30 minutes before the 4° C. incubation. The thermal melting studies were performed by measuring the ellipticity at 225 nm with 60° C./hr heating rate. Raw CD signal was normalized to mean residue ellipticity based on the peptide's length and concentration (Biopolymers 95:94-104 (2011)). Melting temperatures (Tm) were determined by fitting the mean residue ellipticity to a two-state model (Org Lett 8:4735-4738 (2006)). To measure the refolding kinetics, CMP solution was thermally denatured at 75° C. for 10 minutes in a cuvette and rapidly quenched to 25° C. in an ice-water bath, after which the CD signal at 225 nm was observed over time at 25° C. The CD spectra of intact and MMP-1 cleaved type I collagen (FIG. 12) was measured in 90 μg/mL protein solutions in 20 mM acetic acid buffer at 22° C. The 37° C. thermal stability profile (FIG. 2E, inset) was generated by monitoring the ellipticity at 222 nm immediately after transferring the cuvette to a temperature controlled cuvette holder pre-set to 37° C. The Tm values reported in this study are approximately 10° C. higher than the equilibrium Tm due to high heating rate (60° C./hr) (Biopolymers 73:682-688 (2004)).
Synthesis of fluorescently labeled collagen mimetic peptides. Non-caged CMPs were synthesized using Fmoc-mediated solid-phase chemistry by manual or automated synthesis as described previously.2,4 The caged NB(GPO)9 (SEQ ID NO: 12) was prepared by introducing Fmoc(N-o-nitrobenzyl)Gly-OH (synthesized according to Tatsu et al. 2,5) in the middle of the standard solid-phase peptide synthesis. The Hyp residue following the NBGly was conjugated using 9 molar equiv of Fmoc-Hyp(tBu)-OH, 8.8 molar equiv of PyBroP, and 20 molar equiv of DIPEA for over 24 hr to overcome the low reactivity caused by the steric hindrance of the NB cage group. The remaining sequence including the GGG spacer was completed by HBTU chemistry, followed by on-resin labeling with 6 molar equivalent of CF or TAMRA activated by 6 molar equivalent of PyAOP for over 24 hr. The full length fluorescent CMPs were cleaved from resin by treating the resin with TFA/TIS/H2O (95:2.5:2.5) for 3 hr and the cleaved peptide was purified by reverse phase HPLC on a Vydac C18 column using a linear gradient mixture of water (0.1% TFA) and acetonitrile (0.1% TFA) (5-45% acetonitrile gradient in 40 min). The purified peptides were analyzed by MALDI-TOF MS (FIG. 27): m/z calculated 2975.1 [M+Na+] for CF(GPO)9 (SEQ ID NO: 10), found 2975.0 [M+Na+]; m/z calculated 2975.1 [M+Na+] for ^SG9P9O9 (SEQ ID NO: 5), found 2973.5 [M+Na+]; m/z calculated 3110.2 [M+Na+] for CF^NB(GPO)9 (SEQ ID NO: 4), found 3109.4 [M+Na+]; m/z calculated 2975.1 [M+Na+] for CF(GPO)9 (SEQ ID NO: 10) [CF^NB(GPO)9 (SEQ ID NO: 4) after UV decaging], found 2974.1 [M+Na+]; m/z calculated 3142.3 [M+H+] for TAMRA-NB(GPO)9 (SEQ ID NO: 12), found 3141.4 [M+H+]; m/z calculated 3007.2 [M+H+] for TAMRA-(GPO)9 (SEQ ID NO: 15), [TAMRA-NB(GPO)9 (SEQ ID NO: 12) after decaging], found 3006.3 [M+H+]. CD spectra and CD melting curves of the labeled CMPs were acquired in PBS solutions using a JASCO 715 CD spectrophotometer. The solutions were incubated for at least 24 hours at 4° C. prior to CD experiment to ensure folding (FIG. 28).

CF-GGG-(GPO)4^NBGPO(GPO)4 [CF^NB(GPO)9]
Tm (CD melting curve, triple helix) (after UV exposure (photo-decaged), heating rate 60° C./hr, Tm about 10° C. higher than equilibrium Tm): 75 °C | triple helical folding capacity (CD melting) (after UV exposure / photo-cleavage of NB cage): regain its full triple helical folding capacity | triple helical folding capacity (CD melting) (caged, before UV exposure): completely suppressed the CMP's ability to fold into a triple helix

CF-GGG-(GPO)9 [CF(GPO)9]
melting temperature (Tm), CD melting curve (non-caged peptide in PBS, CD at 225 nm, 1° C./min heating rate): 75 °C

CF-GGG-PGOGPGPOPOGOGOPPGOOPGGOOPPG [CF^SG9P9O9, reference compound]
triple helical folding capacity (CD melting) (sequence-scrambled peptide): lack of triple helical structure
